Source: ChEMBL document CHEMBL3045656, “Is the application of carbendazim harmful to healthy plants? Evidence of weak phytotoxicity in tobacco” (J Agric Food Chem, 2002)

Columns and labels:
Assay type in all cases: organism-based
[1] = test system: Nicotiana tabacum; test: Toxicity in Nicotiana tabacum (tobacco) leaves assessed as nitrogen level per gram of dry weight per leaf at 2.6 mM treated 3 times in 2 weeks measured prior to onset of flowering relative to control; details: in vivo, 336 h, 2600 µM
[2] = test system: Nicotiana tabacum; test: Toxicity in Nicotiana tabacum (tobacco) leaves assessed as effect on carotenoids level at 1.3 mM treated 3 times in 2 weeks measured prior to onset of flowering relative to control; details: in vivo, 336 h, 1300 µM
[3] = test system: Nicotiana tabacum; test: Toxicity in Nicotiana tabacum (tobacco) leaves assessed as effect on chlorophyll-a level at 5.2 mM treated 3 times in 2 weeks measured prior to onset of flowering relative to control; details: in vivo, 336 h, 5200 µM
[4] = test system: Nicotiana tabacum; test: Toxicity in Nicotiana tabacum (tobacco) leaves assessed as effect on carotenoids level at 2.6 mM treated 3 times in 2 weeks measured prior to onset of flowering relative to control; details: in vivo, 336 h, 2600 µM
[5] = test system: Nicotiana tabacum; test: Toxicity in Nicotiana tabacum (tobacco) leaves assessed as phosphorus level per gram of dry weight per leaf at 2.6 mM treated 3 times in 2 weeks measured prior to onset of flowering relative to control; details: in vivo, 336 h, 2600 µM
[6] = test system: Nicotiana tabacum; test: Toxicity in Nicotiana tabacum (tobacco) leaves assessed as magnesium level per gram of dry weight per leaf at 5.2 mM treated 3 times in 2 weeks measured prior to onset of flowering relative to control; details: in vivo, 336 h, 5200 µM
[7] = test system: Nicotiana tabacum; test: Toxicity in Nicotiana tabacum (tobacco) leaves assessed as magnesium level per gram of dry weight per leaf at 2.6 mM treated 3 times in 2 weeks measured prior to onset of flowering relative to control; details: in vivo, 336 h, 2600 µM
[8] = test system: Nicotiana tabacum; test: Toxicity in Nicotiana tabacum (tobacco) leaves assessed as potassium level per gram of dry weight per leaf at 2.6 mM treated 3 times in 2 weeks measured prior to onset of flowering relative to control; details: in vivo, 336 h, 2600 µM
[9] = test system: Nicotiana tabacum; test: Toxicity in Nicotiana tabacum (tobacco) leaves assessed as nitrogen level per gram of dry weight per leaf at 1.3 mM treated 3 times in 2 weeks measured prior to onset of flowering relative to control; details: in vivo, 336 h, 1300 µM
[10] = test system: Nicotiana tabacum; test: Toxicity in Nicotiana tabacum (tobacco) leaves assessed as calcium level per gram of dry weight per leaf at 5.2 mM treated 3 times in 2 weeks measured prior to onset of flowering relative to control; details: in vivo, 336 h, 5200 µM
[11] = test system: Nicotiana tabacum; test: Toxicity in Nicotiana tabacum (tobacco) leaves assessed as calcium level per gram of dry weight per leaf at 1.3 mM treated 3 times in 2 weeks measured prior to onset of flowering relative to control; details: in vivo, 336 h, 1300 µM
[12] = test system: Nicotiana tabacum; test: Toxicity in Nicotiana tabacum (tobacco) leaves assessed as potassium level per gram of dry weight per leaf at 5.2 mM treated 3 times in 2 weeks measured prior to onset of flowering relative to control; details: in vivo, 336 h, 5200 µM
[13] = test system: Nicotiana tabacum; test: Toxicity in Nicotiana tabacum (tobacco) leaves assessed as magnesium level per gram of dry weight per leaf at 1.3 mM treated 3 times in 2 weeks measured prior to onset of flowering relative to control; details: in vivo, 336 h, 1300 µM
[14] = test system: Nicotiana tabacum; test: Toxicity in Nicotiana tabacum (tobacco) leaves assessed as effect on chlorophyll-b level at 5.2 mM treated 3 times in 2 weeks measured prior to onset of flowering relative to control; details: in vivo, 336 h, 5200 µM
[15] = test system: Nicotiana tabacum; test: Toxicity in Nicotiana tabacum (tobacco) leaves assessed as nitrogen level per gram of dry weight per leaf at 5.2 mM treated 3 times in 2 weeks measured prior to onset of flowering relative to control; details: in vivo, 336 h, 5200 µM
[16] = test system: Nicotiana tabacum; test: Toxicity in Nicotiana tabacum (tobacco) leaves assessed as reduction of dry weight at 5.2 mM treated 3 times in 2 weeks measured prior to onset of flowering relative to control; parameters: scale not given: the % may be the effect or the level left; details: in vivo, 336 h, 5200 µM
[17] = test system: Nicotiana tabacum; test: Toxicity in Nicotiana tabacum (tobacco) leaves assessed as phosphorus level per gram of dry weight per leaf at 5.2 mM treated 3 times in 2 weeks measured prior to onset of flowering relative to control; details: in vivo, 336 h, 5200 µM
[18] = test system: Nicotiana tabacum; test: Toxicity in Nicotiana tabacum (tobacco) leaves assessed as potassium level per gram of dry weight per leaf at 1.3 mM treated 3 times in 2 weeks measured prior to onset of flowering relative to control; details: in vivo, 336 h, 1300 µM
[19] = test system: Nicotiana tabacum; test: Toxicity in Nicotiana tabacum (tobacco) leaves assessed as effect on carotenoids level at 5.2 mM treated 3 times in 2 weeks measured prior to onset of flowering relative to control; details: in vivo, 336 h, 5200 µM
[20] = test system: Nicotiana tabacum; test: Toxicity in Nicotiana tabacum (tobacco) leaves assessed as effect on chlorophyll-a level at 1.3 mM treated 3 times in 2 weeks measured prior to onset of flowering relative to control; details: in vivo, 336 h, 1300 µM
[21] = test system: Nicotiana tabacum; test: Toxicity in Nicotiana tabacum (tobacco) leaves assessed as phosphorus level per gram of dry weight per leaf at 1.3 mM treated 3 times in 2 weeks measured prior to onset of flowering relative to control; details: in vivo, 336 h, 1300 µM
[22] = test system: Nicotiana tabacum; test: Toxicity in Nicotiana tabacum (tobacco) leaves assessed as reduction of dry weight at 1.3 to 2.6 mM treated 3 times in 2 weeks measured prior to onset of flowering; details: in vivo, 336 h, 2600 µM
[23] = test system: Nicotiana tabacum; test: Toxicity in Nicotiana tabacum (tobacco) leaves assessed as effect on chlorophyll-a level at 2.6 mM treated 3 times in 2 weeks measured prior to onset of flowering relative to control; details: in vivo, 336 h, 2600 µM
[24] = test system: Nicotiana tabacum; test: Toxicity in Nicotiana tabacum (tobacco) leaves assessed as effect on chlorophyll-b level at 1.3 mM treated 3 times in 2 weeks measured prior to onset of flowering relative to control; details: in vivo, 336 h, 1300 µM
[25] = test system: Nicotiana tabacum; test: Toxicity in Nicotiana tabacum (tobacco) leaves assessed as effect on chlorophyll-b level at 2.6 mM treated 3 times in 2 weeks measured prior to onset of flowering relative to control; details: in vivo, 336 h, 2600 µM
[26] = test system: Nicotiana tabacum; test: Toxicity in Nicotiana tabacum (tobacco) leaves assessed as calcium level per gram of dry weight per leaf at 2.6 mM treated 3 times in 2 weeks measured prior to onset of flowering relative to control; details: in vivo, 336 h, 2600 µM

## COC(=O)Nc1nc2ccccc2[nH]1 [CARBENDAZIM]
[1]
  Activity: 41.6 mg
[2]
  Activity: 4.8 microg/cm2
[3]
  Activity: 54.14 microg/cm2
[4]
  Activity: 4.64 microg/cm2
[5]
  Activity: 8.61 mg
[6]
  Activity: 6.5 mg
[7]
  Activity: 6.7 mg
[8]
  Activity: 35.4 mg
[9]
  Activity: 41.7 mg
[10]
  Activity: 10.1 mg
[11]
  Activity: 10.5 mg
[12]
  Activity: 34.1 mg
[13]
  Activity: 6.4 mg
[14]
  Activity: 21.9 microg/cm2
[15]
  Activity: 38.9 mg
[16]
  Activity: 17%
[17]
  Activity: 8.47 mg
[18]
  Activity: 36.7 mg
[19]
  Activity: 3.9 microg/cm2
[20]
  Activity: 66.82 microg/cm2
[21]
  Activity: 9.73 mg
[22]
  Activity: Non-toxic
[23]
  Activity: 62.46 microg/cm2
[24]
  Activity: 25.88 microg/cm2
[25]
  Activity: 24.98 microg/cm2
[26]
  Activity: 10.2 mg
